Source: the NIST ThermoML archive (doi:10.1016/j.tca.2007.03.018)
Where “and” joins values, the source holds several entries; their conditions need not be identical. Equal entries are not always repeated.

Assay: molar heat capacity at saturation pressure
Settings: Crystal 3, Small (less than 1 g) adiabatic calorimetry

C1C2CC3CC1CC(C14CC5CC(CC(C5)C1)C4)(C2)C3 [1,1'-biadamantane]
Settings | molar heat capacity
5.12 K | 0.3991 J/K/mol
5.48 K | 0.4822 J/K/mol
5.83 K | 0.5877 J/K/mol
6.16 K | 0.685 J/K/mol
6.52 K | 0.8082 J/K/mol
6.89 K | 0.9715 J/K/mol
7.26 K | 1.141 J/K/mol
7.65 K | 1.358 J/K/mol
8.06 K | 1.589 J/K/mol
8.49 K | 1.895 J/K/mol
8.96 K | 2.209 J/K/mol
9.44 K | 2.572 J/K/mol
9.95 K | 2.983 J/K/mol
10.48 K | 3.464 J/K/mol
11.04 K | 3.988 J/K/mol
11.61 K | 4.561 J/K/mol
12.2 K | 5.242 J/K/mol
12.83 K | 5.943 J/K/mol
13.49 K | 6.781 J/K/mol
14.18 K | 7.626 J/K/mol
14.87 K | 8.538 J/K/mol
15.63 K | 9.556 J/K/mol
16.43 K | 10.67 J/K/mol
17.24 K | 11.86 J/K/mol
18.08 K | 13.09 J/K/mol
18.95 K | 14.44 J/K/mol
19.88 K | 15.84 J/K/mol
20.83 K | 17.31 J/K/mol
21.82 K | 18.74 J/K/mol
22.89 K | 20.35 J/K/mol
22.95 K | 20.46 J/K/mol
24.01 K | 21.99 J/K/mol
24.06 K | 22.16 J/K/mol
25.22 K | 23.79 J/K/mol
26.48 K | 25.74 J/K/mol
27.75 K | 27.57 J/K/mol
29.1 K | 29.32 J/K/mol
30.54 K | 31.4 J/K/mol
31.99 K | 33.13 J/K/mol
33.46 K | 34.98 J/K/mol
34.99 K | 36.71 J/K/mol
36.59 K | 38.54 J/K/mol
38.25 K | 40.44 J/K/mol
40.03 K | 42.38 J/K/mol
41.9 K | 44.38 J/K/mol
43.85 K | 46.11 J/K/mol
45.82 K | 48.13 J/K/mol
47.8 K | 49.99 J/K/mol
49.9 K | 51.98 J/K/mol
52.16 K | 54.02 J/K/mol
56.79 K | 58.28 J/K/mol
59.06 K | 60 J/K/mol
61.48 K | 62.21 J/K/mol
64.1 K | 64.5 J/K/mol
66.87 K | 66.86 J/K/mol
69.6 K | 69.08 J/K/mol
72.27 K | 71.72 J/K/mol
74.94 K | 73.93 J/K/mol
77.75 K | 76.41 J/K/mol
78.69 K | 77.62 J/K/mol
80.6 K | 79.18 J/K/mol
81.1 K | 79.65 J/K/mol
83.35 K | 81.61 J/K/mol
83.41 K | 81.57 J/K/mol
85.61 K | 83.56 J/K/mol
86.26 K | 84.36 J/K/mol
87.88 K | 85.72 J/K/mol
89.1 K | 86.73 J/K/mol
90.15 K | 87.8 J/K/mol
91.92 K | 89.55 J/K/mol
92.41 K | 89.88 J/K/mol
94.69 K | 91.96 J/K/mol
96.97 K | 94.12 J/K/mol
99.26 K | 96.28 J/K/mol
101.55 K | 98.53 J/K/mol
103.84 K | 100.69 J/K/mol
106.12 K | 102.85 J/K/mol
108.41 K | 105.09 J/K/mol
110.71 K | 107.17 J/K/mol
113 K | 109.58 J/K/mol
115.31 K | 111.83 J/K/mol
117.61 K | 113.99 J/K/mol
119.9 K | 116.15 J/K/mol
122.2 K | 118.56 J/K/mol
124.49 K | 120.81 J/K/mol
126.77 K | 123.05 J/K/mol
129.06 K | 125.38 J/K/mol
130.26 K | 126.5 J/K/mol
131.34 K | 127.63 J/K/mol
132.68 K | 129 J/K/mol
134.96 K | 131.3 J/K/mol
137.24 K | 133.6 J/K/mol
139.51 K | 135.9 J/K/mol
141.78 K | 138.2 J/K/mol
144.05 K | 140.5 J/K/mol
146.32 K | 142.9 J/K/mol
148.59 K | 145.3 J/K/mol
150.84 K | 147.7 J/K/mol
153.1 K | 150.1 J/K/mol
155.35 K | 152.4 J/K/mol
157.59 K | 154.7 J/K/mol
159.84 K | 157.1 J/K/mol
162.08 K | 159.6 J/K/mol
164.32 K | 161.9 J/K/mol
166.57 K | 164.4 J/K/mol
168.8 K | 166.9 J/K/mol
171.03 K | 169.3 J/K/mol
173.25 K | 171.7 J/K/mol
175.46 K | 174.2 J/K/mol
177.68 K | 176.7 J/K/mol
179.89 K | 179.2 J/K/mol
182.09 K | 181.7 J/K/mol
184.28 K | 184.2 J/K/mol
186.47 K | 186.7 J/K/mol
188.65 K | 189.2 J/K/mol
190.83 K | 191.6 J/K/mol
193 K | 194.2 J/K/mol
195.17 K | 196.7 J/K/mol
197.33 K | 199.3 J/K/mol
199.49 K | 201.8 J/K/mol
201.65 K | 204.5 J/K/mol
203.8 K | 207.1 J/K/mol
205.94 K | 209.8 J/K/mol
208.08 K | 212.4 J/K/mol
210.21 K | 215 J/K/mol
212.34 K | 217.7 J/K/mol
214.46 K | 220.3 J/K/mol
216.58 K | 222.9 J/K/mol
217.18 K | 223.7 J/K/mol
218.7 K | 225.6 J/K/mol
219.55 K | 226.6 J/K/mol
220.81 K | 228.3 J/K/mol
221.81 K | 229.5 J/K/mol
222.91 K | 231 J/K/mol
224.05 K | 232.4 J/K/mol
225.01 K | 233.7 J/K/mol
226.29 K | 235.3 J/K/mol
228.52 K | 238.3 J/K/mol
230.75 K | 241.1 J/K/mol
232.97 K | 244 J/K/mol
235.18 K | 246.9 J/K/mol
237.39 K | 249.9 J/K/mol
239.59 K | 252.9 J/K/mol
241.79 K | 255.7 J/K/mol
243.98 K | 258.7 J/K/mol
246.17 K | 261.7 J/K/mol
248.35 K | 264.6 J/K/mol
250.52 K | 267.6 J/K/mol
252.71 K | 270.6 J/K/mol
254.88 K | 273.6 J/K/mol
257.04 K | 276.7 J/K/mol
259.19 K | 279.8 J/K/mol
261.34 K | 282.9 J/K/mol
263.48 K | 286 J/K/mol
265.62 K | 289.2 J/K/mol
267.75 K | 292 J/K/mol
269.87 K | 295.1 J/K/mol
271.98 K | 298.2 J/K/mol
274.09 K | 301.2 J/K/mol
275.74 K | 303.3 J/K/mol
276.2 K | 304.1 J/K/mol
277.54 K | 306 J/K/mol
278.29 K | 307.1 J/K/mol
279.26 K | 308.4 J/K/mol
280.39 K | 310.1 J/K/mol
280.98 K | 311 J/K/mol
282.47 K | 313.1 J/K/mol
282.68 K | 313.6 J/K/mol
284.38 K | 316 J/K/mol
284.56 K | 316 J/K/mol
286.08 K | 318.6 J/K/mol
286.65 K | 319.1 J/K/mol
287.78 K | 321.1 J/K/mol
288.72 K | 322.2 J/K/mol
289.47 K | 323.6 J/K/mol
290.79 K | 325 J/K/mol
291.16 K | 325.9 J/K/mol
292.84 K | 328 J/K/mol and 328.3 J/K/mol
294.52 K | 330.7 J/K/mol
294.89 K | 331.1 J/K/mol
296.19 K | 333.2 J/K/mol
296.94 K | 334 J/K/mol
297.87 K | 335.4 J/K/mol
298.98 K | 336.9 J/K/mol
299.54 K | 338 J/K/mol
301.01 K | 339.9 J/K/mol
301.2 K | 340.6 J/K/mol
302.86 K | 342.9 J/K/mol
303.04 K | 342.7 J/K/mol
304.51 K | 345.2 J/K/mol
305.05 K | 345.7 J/K/mol
